According to patent US10562947B2, “Compositions and methods for preventing or treating diseases, conditions or processes characterized by aberrant fibroblast proliferation and extracellular matrix deposition” (MOERAE MATRIX, INC., priority 2011, dated 2020):
Where a SMILES comes first, the peptide text is derived from it.

Columns and labels:
α-SMA = α-SMA immunostaining of lung sections, bleomycin treatment model; assay type: in vivo, mouse; conditions: 50 μg/kg/day IP or NEB, day 14 to 28; vs untreated bleomycin-injured lungs
Description: (§1) C57-BL/6 mice were subjected to bleomycin injury at day 0. […] Formalin-fixed lung tissue sections were immunostained against α-SMA. Control staining was with biotinylated secondary IgG antibody. Streptavidin-conjugated horseradish peroxidase was used with 3,3′-diaminobenzidene as substrate and nuclei was counterstained with hematoxylin. Original magnifications: 20×

TNF-α = assay: Circulating inflammatory cytokines, bleomycin treatment model; assay type: in vivo, mouse; conditions: intraperitoneal or nebulized; 24 hours after final administration
[1] = tested on: Porcine airway smooth muscle (PASM); assay: ISO-induced relaxation of airway smooth muscle rings in muscle bath; conditions: 100 μM for 1 hr; CCh-contracted rings; n=3
Description: Porcine airway smooth muscle (PASM) rings were isolated from second generation bronchi, cartilage was peeled off and then hung in a muscle bath and equilibrated in Kreb's buffer for 3 hrs. […] ISO is a β-adrenergic agonist that relaxes almost all varieties of […] when the tone is high, but its action is most pronounced on bronchial and gastrointestinal smooth muscle. It prevents or relieves bronchoconstrution. Its effect in asthma maybe due in part to an additional action to inhibit antigen-induced release of histamine and other mediators of inflammation; this action is shared by β2-receptor-selective stimulants. Goodman & Gilman's The Pharmacological Basis of Therapeutics, Joel G. Hardman and Lee E. Limberd, Eds., 10th Ed. […] Force was normalized to the weight and length of the tissue and converted to stress and relaxation induced was calculated.

phospho-Thr^334-MAPKAPK2 = assay: Activated MK2 immunostaining of lung sections, bleomycin treatment model; assay type: in vivo, mouse; conditions: 50 μg/kg daily IP or NEB, day 14 to 28
Description: as §1, with “Briefly, C57-BL/6” for “C57-BL/6”, “phospho-Thr^334 MK2.” for “α-SMA.”, “hematoxylin.” for “hematoxylin. Original magnifications: 20×”

MK2 phosphorylation = MK2 phosphorylation in intact airway smooth muscle, immunoblot; design: species or system human; conditions: 200 μM pre-treatment for 30 min
Experimental: (A) Representative tracings of force generation. Cumulative contractile responses to CCH (B) and % relaxation to ISO doses (C). n=4; p<0.05. Inset is an immunoblot showing MK2 phosphorylation level. HASM was hung in the muscle bath and frozen. MK2 phosphorylation was determined by SDS PAGE and immunoblotting.

CC(C)C[C@H](NC(=O)[C@H](C)NC(=O)[C@H](CCCCN)NC(=O)[C@H](C)NC(=O)[C@H](CCCNC(=N)N)NC(=O)[C@H](C)NC(=O)[C@H](CCC(N)=O)NC(=O)[C@H](CCCNC(=N)N)NC(=O)[C@H](C)NC(=O)[C@H](C)NC(=O)[C@H](C)NC(=O)[C@H](CCCNC(=N)N)NC(=O)[C@H](C)NC(=O)[C@@H](N)Cc1ccc(O)cc1)C(=O)N[C@@H](C)C(=O)N[C@@H](CCCNC(=N)N)C(=O)N[C@@H](CCC(N)=O)C(=O)N[C@@H](CC(C)C)C(=O)NCC(=O)N[C@H](C(=O)N[C@@H](C)C(=O)N[C@@H](C)C(=O)O)C(C)C [MMI-0100] (H-YARAAARQARAKALARQLGVAA-OH; N-terminus and C-terminus assumed)
level of α-SMA in lungs (α-SMA): significantly attenuated | plasma level of TNF-α (TNF-α): significantly reduced | enhancement of ISO induced relaxation [1]: 13% | activated MK2 (phospho-Thr^334-MAPKAPK2) staining (phospho-Thr^334-MAPKAPK2): decreased phospho-Thr^334-MAPKAPK2 staining | MK2 phosphorylation level (MK2 phosphorylation): reduced MK2 phosphorylation
